Data reported in the NIST ThermoML archive (doi:10.1016/j.fluid.2014.10.004).

Assays:
[1] = xn = mol fraction of the nth substance listed; conditions: 101.3 kPa, Liquid, Sing-around technique in a fixed-path interferometer
[2] = refractive index (Na D-line) (dimensionless); xn = mol fraction of the nth substance listed; conditions: 101.3 kPa, Liquid, Standard Abbe refractometry

C[N+](=O)[O-] [nitromethane] + ClCCCCCl
x2 = 0
Conditions | refractive index, 298.15 K | refractive index, 308.15 K | refractive index, 318.15 K | speed of sound, 298.15 K [m/s] | speed of sound, 308.15 K [m/s] | speed of sound, 318.15 K [m/s]
[1] | – | – | – | 1321.5 | 1281.9 | 1242.5
[2] | 1.37955 | 1.37482 | 1.37001 | – | – | –

CCCCCCl [1-chloropentane] + C[N+](=O)[O-]
Conditions | refractive index, 298.15 K | refractive index, 308.15 K | refractive index, 318.15 K | speed of sound, 298.15 K [m/s] | speed of sound, 308.15 K [m/s] | speed of sound, 318.15 K [m/s]
[1], x1 = 0.1043 | – | – | – | 1276 | 1237 | 1197.9
[1], x1 = 0.1721 | – | – | – | 1253.5 | 1214.4 | 1175.3
[1], x1 = 0.2575 | – | – | – | 1231.2 | 1192.3 | 1153.4
[1], x1 = 0.3466 | – | – | – | 1213.7 | 1174.8 | 1135.8
[1], x1 = 0.4525 | – | – | – | 1198.2 | 1159.2 | 1120.1
[1], x1 = 0.5435 | – | – | – | 1188.6 | 1149.2 | 1110.1
[1], x1 = 0.6864 | – | – | – | 1177.1 | 1137.8 | 1098.5
[1], x1 = 0.8325 | – | – | – | 1169.4 | 1130.1 | 1090.8
[1], x1 = 0.8859 | – | – | – | 1167.6 | 1128.1 | 1088.9
[1], x1 = 1 | – | – | – | 1164.2 | 1124.9 | 1085.8
[2], x1 = 0.1044 | 1.38453 | 1.37934 | 1.37439 | – | – | –
[2], x1 = 0.1721 | 1.38722 | 1.3821 | 1.377 | – | – | –
[2], x1 = 0.2575 | 1.39056 | 1.38539 | 1.38037 | – | – | –
[2], x1 = 0.3466 | 1.39367 | 1.38858 | 1.38354 | – | – | –
[2], x1 = 0.4525 | 1.39687 | 1.39181 | 1.38674 | – | – | –
[2], x1 = 0.5435 | 1.39934 | 1.39422 | 1.38916 | – | – | –
[2], x1 = 0.6864 | 1.40308 | 1.39792 | 1.39268 | – | – | –
[2], x1 = 0.8325 | 1.40646 | 1.4012 | 1.396 | – | – | –
[2], x1 = 0.8859 | 1.4076 | 1.40244 | 1.3972 | – | – | –
[2], x1 = 1 | 1.41015 | 1.40501 | 1.39984 | – | – | –

C[N+](=O)[O-] [nitromethane] + ClC(Cl)C(Cl)Cl
x2 = 0
Conditions | refractive index, 298.15 K | refractive index, 308.15 K | refractive index, 318.15 K | speed of sound, 298.15 K [m/s] | speed of sound, 308.15 K [m/s] | speed of sound, 318.15 K [m/s]
[1] | – | – | – | 1321.2 | 1281.8 | 1242.5
[2] | 1.37946 | 1.37472 | 1.36996 | – | – | –

C[N+](=O)[O-] [nitromethane] + CC(Cl)(Cl)Cl
x2 = 0
Conditions | refractive index, 298.15 K | refractive index, 308.15 K | refractive index, 318.15 K | speed of sound, 298.15 K [m/s] | speed of sound, 308.15 K [m/s] | speed of sound, 318.15 K [m/s]
[1] | – | – | – | 1321.6 | 1281.9 | 1242.5
[2] | 1.37949 | 1.37473 | 1.36995 | – | – | –

ClCCCCl [1,3-dichloropropane] + C[N+](=O)[O-]
Conditions | refractive index, 298.15 K | refractive index, 308.15 K | refractive index, 318.15 K | speed of sound, 298.15 K [m/s] | speed of sound, 308.15 K [m/s] | speed of sound, 318.15 K [m/s]
[1], x1 = 0.0878 | – | – | – | 1303 | 1264 | 1225
[1], x1 = 0.1939 | – | – | – | 1285.9 | 1247.3 | 1208.9
[1], x1 = 0.2938 | – | – | – | 1273.6 | 1235.4 | 1197.3
[1], x1 = 0.3998 | – | – | – | 1263.5 | 1225.6 | 1187.8
[1], x1 = 0.5028 | – | – | – | 1255.9 | 1218.2 | 1180.7
[1], x1 = 0.6154 | – | – | – | 1249.4 | 1212 | 1174.8
[1], x1 = 0.7207 | – | – | – | 1244.7 | 1207.5 | 1170.5
[1], x1 = 0.8326 | – | – | – | 1240.8 | 1203.8 | 1167
[1], x1 = 0.9404 | – | – | – | 1237.9 | 1201 | 1164.4
[1], x1 = 1 | – | – | – | 1236.5 | 1199.7 | 1163.2
[2], x1 = 0.0878 | 1.38808 | 1.38325 | 1.37861 | – | – | –
[2], x1 = 0.1939 | 1.39757 | 1.39278 | 1.38807 | – | – | –
[2], x1 = 0.2938 | 1.40567 | 1.40095 | 1.39632 | – | – | –
[2], x1 = 0.3998 | 1.41335 | 1.40869 | 1.40422 | – | – | –
[2], x1 = 0.5028 | 1.42017 | 1.41551 | 1.41092 | – | – | –
[2], x1 = 0.6154 | 1.42699 | 1.42236 | 1.41782 | – | – | –
[2], x1 = 0.7207 | 1.43278 | 1.42826 | 1.4234 | – | – | –
[2], x1 = 0.8326 | 1.43844 | 1.43358 | 1.42879 | – | – | –
[2], x1 = 0.9404 | 1.44348 | 1.43846 | 1.43349 | – | – | –
[2], x1 = 1 | 1.44617 | 1.44123 | 1.43614 | – | – | –

ClCCCl [1,2-dichloroethane] + C[N+](=O)[O-]
x1 = 1
Conditions | refractive index, 298.15 K | refractive index, 308.15 K | refractive index, 318.15 K | speed of sound, 298.15 K [m/s] | speed of sound, 308.15 K [m/s] | speed of sound, 318.15 K [m/s]
[1] | – | – | – | 1194.4 | 1156.1 | 1117.8
[2] | 1.44206 | 1.43661 | 1.43109 | – | – | –

CC(Cl)(Cl)Cl [1,1,1-trichloroethane] + C[N+](=O)[O-]
Conditions | refractive index, 298.15 K | refractive index, 308.15 K | refractive index, 318.15 K | speed of sound, 298.15 K [m/s] | speed of sound, 308.15 K [m/s] | speed of sound, 318.15 K [m/s]
[1], x1 = 0.0921 | – | – | – | 1258.6 | 1219.9 | 1181.4
[1], x1 = 0.1727 | – | – | – | 1211.5 | 1173.7 | 1136
[1], x1 = 0.2614 | – | – | – | 1166.3 | 1129.1 | 1092.1
[1], x1 = 0.3951 | – | – | – | 1109.8 | 1073.5 | 1037.3
[1], x1 = 0.4862 | – | – | – | 1079.3 | 1043.4 | 1007.6
[1], x1 = 0.5904 | – | – | – | 1048.7 | 1013.2 | 977.89
[1], x1 = 0.7066 | – | – | – | 1019.3 | 984.72 | 949.76
[1], x1 = 0.8358 | – | – | – | 992.76 | 957.84 | 923.21
[1], x1 = 0.9012 | – | – | – | 980.43 | 945.74 | 911.39
[1], x1 = 1 | – | – | – | 962.94 | 928.68 | 894.71
[2], x1 = 0.0921 | 1.38777 | 1.38231 | 1.37702 | – | – | –
[2], x1 = 0.1727 | 1.39427 | 1.38809 | 1.38239 | – | – | –
[2], x1 = 0.2614 | 1.4006 | 1.39442 | 1.3887 | – | – | –
[2], x1 = 0.3951 | 1.40894 | 1.40268 | 1.39695 | – | – | –
[2], x1 = 0.4862 | 1.41396 | 1.40768 | 1.40208 | – | – | –
[2], x1 = 0.5904 | 1.41903 | 1.41302 | 1.40727 | – | – | –
[2], x1 = 0.7066 | 1.42412 | 1.41834 | 1.41249 | – | – | –
[2], x1 = 0.8358 | 1.42923 | 1.42338 | 1.41753 | – | – | –
[2], x1 = 0.9012 | 1.43156 | 1.42575 | 1.41987 | – | – | –
[2], x1 = 1 | 1.43492 | 1.42908 | 1.42311 | – | – | –

C[N+](=O)[O-] [nitromethane] + ClC(Cl)Cl
Conditions | refractive index, 298.15 K | refractive index, 308.15 K | refractive index, 318.15 K | speed of sound, 298.15 K [m/s] | speed of sound, 308.15 K [m/s] | speed of sound, 318.15 K [m/s]
[1], x2 = 0 | – | – | – | 1321.3 | 1281.8 | 1242.4
[1], x2 = 0.1197 | – | – | – | 1253.7 | 1215.5 | 1177.5
[1], x2 = 0.1772 | – | – | – | 1225 | 1187.5 | 1150.1
[1], x2 = 0.3007 | – | – | – | 1171.2 | 1134.6 | 1098.1
[1], x2 = 0.4009 | – | – | – | 1133.6 | 1097.8 | 1062
[1], x2 = 0.5 | – | – | – | 1101.3 | 1065.9 | 1030.7
[1], x2 = 0.5978 | – | – | – | 1072.5 | 1037.7 | 1002.9
[1], x2 = 0.7194 | – | – | – | 1041.5 | 1007.1 | 972.74
[1], x2 = 0.8607 | – | – | – | 1010.4 | 976.31 | 942.3
[1], x2 = 0.9562 | – | – | – | 993.45 | 959.49 | 925.65
[2], x2 = 0 | 1.37951 | 1.37501 | 1.37016 | – | – | –
[2], x2 = 0.1197 | 1.39001 | 1.38474 | 1.37896 | – | – | –
[2], x2 = 0.1772 | 1.39474 | 1.38937 | 1.3835 | – | – | –
[2], x2 = 0.3007 | 1.40415 | 1.39828 | 1.39227 | – | – | –
[2], x2 = 0.4009 | 1.41107 | 1.40509 | 1.39897 | – | – | –
[2], x2 = 0.5 | 1.41742 | 1.41126 | 1.40531 | – | – | –
[2], x2 = 0.5978 | 1.42317 | 1.41698 | 1.41097 | – | – | –
[2], x2 = 0.7194 | 1.42971 | 1.42362 | 1.41741 | – | – | –
[2], x2 = 0.8607 | 1.4364 | 1.43035 | 1.42424 | – | – | –
[2], x2 = 0.9562 | 1.44032 | 1.43408 | 1.42786 | – | – | –

C[N+](=O)[O-] [nitromethane] + CCCCCCl
x2 = 0
Conditions | refractive index, 298.15 K | refractive index, 308.15 K | refractive index, 318.15 K | speed of sound, 298.15 K [m/s] | speed of sound, 308.15 K [m/s] | speed of sound, 318.15 K [m/s]
[1] | – | – | – | 1321.7 | 1282 | 1242.6
[2] | 1.37954 | 1.3747 | 1.36996 | – | – | –

C[N+](=O)[O-] [nitromethane] + ClCCCCl
x2 = 0
Conditions | refractive index, 298.15 K | refractive index, 308.15 K | refractive index, 318.15 K | speed of sound, 298.15 K [m/s] | speed of sound, 308.15 K [m/s] | speed of sound, 318.15 K [m/s]
[1] | – | – | – | 1321.2 | 1281.8 | 1242.5
[2] | 1.37948 | 1.3748 | 1.37007 | – | – | –
